The conditions of data set [1]: 298.15 K; 101.33 kPa; Liquid.
A short description of data set [2]: excess molar enthalpy (molar enthalpy of mixing); xn = mol fraction of the nth substance listed. As to conditions: 298.15 K, 101.3 kPa, Liquid.

This passage reports mass density and excess molar enthalpy results from the NIST ThermoML archive (doi:10.1016/j.tca.2004.09.012).

Numbers after ± are expanded uncertainties.

As for `CC(=O)CC(C)C` [4-methylpentan-2-one], the mass density (in general, the mass of a sample divided by its volume) in data set [1] was 796.19 ± 0.63 kg/m3.

With `CC(=O)CC(C)C` [4-methylpentan-2-one] + CCCCCCO, the excess molar enthalpy in data set [2] (x1 = 0.0995) was 0.134 ± 0.00311 kcal/mol; in data set [2] (x1 = 0.2004), 0.234 ± 0.00526 kcal/mol; in data set [2] (x1 = 0.3015) it was 0.302 ± 0.00645 kcal/mol; in data set [2] (x1 = 0.4029) it was 0.344 ± 0.00741 kcal/mol; in data set [2] (x1 = 0.5082), 0.361 ± 0.00765 kcal/mol; in data set [2] (x1 = 0.5096) it was 0.36 ± 0.00765 kcal/mol. In addition, the excess molar enthalpy in data set [2] (x1 = 0.6091) is 0.35 ± 0.00741 kcal/mol; in data set [2] (x1 = 0.7086), 0.313 ± 0.00669 kcal/mol; in data set [2] (x1 = 0.8049) it was 0.248 ± 0.0055 kcal/mol; in data set [2] (x1 = 0.903), 0.144 ± 0.00335 kcal/mol.

As to `CC(=O)CC(C)C` [4-methylpentan-2-one] + CCCCCO, the excess molar enthalpy in data set [2] (x1 = 0.1008) came out at 0.13 ± 0.00311 kcal/mol; in data set [2] (x1 = 0.2043), 0.224 ± 0.00502 kcal/mol; in data set [2] (x1 = 0.304) it was 0.286 ± 0.00621 kcal/mol; in data set [2] (x1 = 0.403), 0.322 ± 0.00693 kcal/mol; in data set [2] (x1 = 0.4035) it was 0.324 ± 0.00693 kcal/mol; in data set [2] (x1 = 0.503) it was 0.341 ± 0.00717 kcal/mol. Moreover, the excess molar enthalpy in data set [2] (x1 = 0.5035) was found to be 0.337 ± 0.00717 kcal/mol; in data set [2] (x1 = 0.6017) it was 0.334 ± 0.00717 kcal/mol; in data set [2] (x1 = 0.7007) it was 0.303 ± 0.00645 kcal/mol; in data set [2] (x1 = 0.7996), 0.242 ± 0.00526 kcal/mol; in data set [2] (x1 = 0.9002), 0.144 ± 0.00335 kcal/mol.

For the compound `CC(=O)CC(C)C` [4-methylpentan-2-one] + CCCCO, the excess molar enthalpy is 0.124 ± 0.00287 kcal/mol in data set [2] (x1 = 0.1005); 0.212 ± 0.00478 kcal/mol in data set [2] (x1 = 0.1998); 0.272 ± 0.00598 kcal/mol in data set [2] (x1 = 0.2999); 0.312 ± 0.00669 kcal/mol in data set [2] (x1 = 0.3967); 0.309 ± 0.00669 kcal/mol in data set [2] (x1 = 0.3996); 0.331 ± 0.00717 kcal/mol in data set [2] (x1 = 0.4967). The excess molar enthalpy in data set [2] (x1 = 0.5978) was determined as 0.326 ± 0.00693 kcal/mol; in data set [2] (x1 = 0.6981), 0.297 ± 0.00645 kcal/mol; in data set [2] (x1 = 0.7978), 0.238 ± 0.00526 kcal/mol; in data set [2] (x1 = 0.9006), 0.14 ± 0.00335 kcal/mol.

With `CC(=O)CC(C)C` [4-methylpentan-2-one] + CCCO, the excess molar enthalpy in data set [2] (x1 = 0.0797) was determined as 0.0934 ± 0.00237 kcal/mol; in data set [2] (x1 = 0.1587), 0.164 ± 0.00382 kcal/mol; in data set [2] (x1 = 0.2384), 0.22 ± 0.00478 kcal/mol; in data set [2] (x1 = 0.3192), 0.262 ± 0.00574 kcal/mol; in data set [2] (x1 = 0.3901), 0.29 ± 0.00621 kcal/mol; in data set [2] (x1 = 0.4948), 0.31 ± 0.00669 kcal/mol. For the same compound, the excess molar enthalpy in data set [2] (x1 = 0.5955) stood at 0.307 ± 0.00669 kcal/mol; in data set [2] (x1 = 0.6981), 0.281 ± 0.00598 kcal/mol; in data set [2] (x1 = 0.8004) it was 0.225 ± 0.00502 kcal/mol; in data set [2] (x1 = 0.9012) it was 0.135 ± 0.00311 kcal/mol.

With `CC(=O)CC(C)C` [4-methylpentan-2-one] + CCO, the excess molar enthalpy in data set [2] (x1 = 0.0772) worked out at 0.0649 ± 0.00179 kcal/mol; in data set [2] (x1 = 0.1571) it was 0.122 ± 0.00287 kcal/mol; in data set [2] (x1 = 0.2369), 0.169 ± 0.00382 kcal/mol; in data set [2] (x1 = 0.2947) it was 0.208 ± 0.00454 kcal/mol; in data set [2] (x1 = 0.3977), 0.251 ± 0.0055 kcal/mol; in data set [2] (x1 = 0.5) it was 0.279 ± 0.00598 kcal/mol. Moreover, the excess molar enthalpy in data set [2] (x1 = 0.5995) turned out to be 0.287 ± 0.00621 kcal/mol; in data set [2] (x1 = 0.6981), 0.273 ± 0.00598 kcal/mol; in data set [2] (x1 = 0.7954), 0.232 ± 0.00502 kcal/mol; in data set [2] (x1 = 0.897), 0.149 ± 0.00359 kcal/mol.

Consider `CC(=O)CC(C)C` [4-methylpentan-2-one] + CO, for which the excess molar enthalpy came out at 0.034 ± 0.00232 kcal/mol in data set [2] (x1 = 0.0523); 0.0604 ± 0.00335 kcal/mol in data set [2] (x1 = 0.0998); 0.0839 ± 0.0043 kcal/mol in data set [2] (x1 = 0.1502); 0.105 ± 0.00526 kcal/mol in data set [2] (x1 = 0.2002); 0.126 ± 0.00598 kcal/mol in data set [2] (x1 = 0.2495); 0.159 ± 0.00741 kcal/mol in data set [2] (x1 = 0.2954). In addition, the excess molar enthalpy in data set [2] (x1 = 0.4019) came to 0.192 ± 0.0086 kcal/mol; in data set [2] (x1 = 0.5037), 0.209 ± 0.00932 kcal/mol; in data set [2] (x1 = 0.6059) it was 0.211 ± 0.00932 kcal/mol; in data set [2] (x1 = 0.707), 0.195 ± 0.00884 kcal/mol; in data set [2] (x1 = 0.8119), 0.155 ± 0.00717 kcal/mol; in data set [2] (x1 = 0.908), 0.0917 ± 0.00454 kcal/mol.

Regarding `CCCCO` [butan-1-ol], in data set [1], the mass density was 805.75 ± 0.69 kg/m3.

With `CCO` [ethanol], the mass density in data set [1] worked out at 785.15 ± 0.58 kg/m3.

For `CCCCCCO` [hexan-1-ol], the mass density in data set [1] turned out to be 815.2 ± 0.99 kg/m3.

As for `CO` [methanol], the mass density in data set [1] came out at 786.5 ± 0.61 kg/m3.

With `CCCCCO` [pentan-1-ol], in data set [1], the mass density is reported as 810.88 ± 0.99 kg/m3.

Consider `CCCO` [propan-1-ol], for which the mass density in data set [1] stood at 799.51 ± 0.57 kg/m3.
